The record followed here is US11564924B2, “Pharmaceutical composition formed by combining pyridoxamine compound and thiamine compound” (RENASCIENCE CO., LTD., priority 2014, dated 2023).

Data set [1] concerns Wernicke's encephalopathy. Nature of the data set: Wernicke's encephalopathy findings (MRI of the brain, symptoms) during drug administration. The format is in vivo, human. As for the experimental part: Immediately after the patient was suspected of having Wernicke's encephalopathy, oral administration of a thiamine compound (fursultiamine (Takeda Pharmaceutical Company Limited)) at a dose of 75 mg/day was initiated (administered once a day) and continued every day.
Immediately after the patient was suspected of having Wernicke's encephalopathy, intravenous administration of a thiamine compound (fursultiamine (Takeda Pharmaceutical Company Limited)) (300 mg/day) was performed, and then (from 10 weeks after the start of drug administration), oral administration of the thiamine compound at a dose of 100 to 50 mg/day was continued.

Data set [2] is described as follows: Blood kinetics of pyridoxamine compound in people with reduced renal function. The format is in vivo, human. The note with it: 150 mg pyridoxamine dihydrochloride oral. As to the method:
As described in Experiment Example 1 above, administration of a pyridoxamine compound increases not only the blood pyridoxamine concentration, but also the blood pyridoxal concentration. Rather, in blood, the pyridoxal concentration was higher than the pyridoxamine concentration. Thus, changes in the serum concentrations of pyridoxamine, pyridoxal, pyridoxine, and 4-pyridoxic acid after administration of a pyridoxamine compound were observed over time.
More specifically, 150 mg of pyridoxamine dihydrochloride was orally administered to each of six people with reduced renal function (subjects) (average age: 56 years old, average body weight: 67 kg). Blood was collected 0.5, 1, 1.5, 2, 2.5, 3, 4, 5, 6, 8, 10, and 12 hours after the administration, and the serums were collected. Measurement of the serum concentrations of pyridoxamine, pyridoxal, pyridoxine, and 4-pyridoxic acid was outsourced to Shin Nippon Biomedical Laboratories, Ltd.

The subject of data set [3] is vitamin B1 in human whole blood. Nature of the data set: In vitro effect on vitamin B1 concentration in human whole blood. Conditions: human whole blood, 5, 50, 500 μg/mL, 37° C. An excerpt: In addition, as described in Experiment Example 1 and Experiment Example 2, administration of a pyridoxamine compound increases not only the serum pyridoxamine concentration, but also the serum pyridoxal concentration, and thus, pyridoxamine and pyridoxal were both used as test substances for the investigation.
Blood was collected from a human using EDTA⋅2K as an anticoagulant. In addition, pyridoxamine dihydrochloride (Sigma-Aldrich Japan) was used as pyridoxamine, and pyridoxal hydrochloride (Nacalai Tesque, Inc.) was used as pyridoxal. They were dissolved at 0.5, 5, and 50 mg/mL in physiological saline to prepare test solutions. 10 μL of each test solution was individually added per mL of the whole blood collected above (test samples). The final concentrations of each test substance in the test samples were 5, 50, 500 μg/mL. Further, a vehicle was prepared by adding 10 μl of physiological saline to 1 ml of the whole blood. The vehicle and the test samples were incubated at 37° C. for 1 hour or 16 hours and then immediately frozen. Measurement of the vitamin B1 concentrations in the whole blood before the start of the incubation to which neither the physiological saline nor any test solution was added (baseline: indicated by “BL” in FIG. 4), and in the vehicle and in each test sample after the incubation, was outsourced to SRL Inc., and the measurement was performed using LC/MS/MS.

Structures are written as SMILES.

With `Cc1ncc(CO)c(CN)c1O.Cl.Cl` [pyridoxamine dihydrochloride], the “MRI of the brain finding during drug administration” value in data set [1] (patient ID No. 3, 6 weeks after the start of drug administration, after an epilepsy-like symptom) is “findings suggestive of Wernicke's encephalopathy”; in data set [1] (patient ID No. 6, 9 weeks after the start of drug administration), “findings suggestive of Wernicke's encephalopathy”. Moreover, in data set [2] (serum up to 12 hours), the “change in the concentration of pyridoxine (PN)” value is given as “No large change”. Further, the “time after administration at which the serum concentration of pyridoxamine (unchanged form) peaked” value in data set [2] (six people with reduced renal function) worked out at 2 h. For the same molecule, the “change in whole blood vitamin B1 concentration” value in data set [3] (1 hour incubation) is listed as “no changes”; in data set [3] (16 hours incubation), “decrease was similar to that in the vehicle”.
